Data as given in US5112947A, “Peptides, and antidementia agents containing the same” (Nippon Chemiphar Co., Ltd., priority 1989, dated 1992).
Non-standard residues stand in square brackets, D forms with d. Residues, ends and D or L forms follow the SMILES beside them. *: point of attachment. Cys(free,S-linked) = N[C@@H](CS*)C(=O)O; pGlu = O=C1CC[C@@H](C(=O)O)N1; Aze = O=C(O)[C@@H]1CCN1

Each compound was assayed on male Wistar rats (assay: one-trial passive avoidance test: improvement of experimental retrograde amnesia by cycloheximide). Settings: dose 0.1 ng/kg, given 1 h before electro-shock (0.5 mA); cycloheximide 2.7 to 3.0 mg/kg s.c.; retention tested at 48 hours; control = cycloheximide alone.
Assay type: in vivo, rat
Procedure: 221, pp. […], 1983. […] At 48 hours after the administration was made, memory retention of the rats were tested.
In the case of `N=C(N)NCCC[C@H](NC(=O)[C@@H]1CCCN1C(=O)[C@H](CO)NC(=O)[C@H](CC(N)=O)NC(=O)[C@@H]1CCC(=O)N1)C(=O)NCC(N)=O` [Example 21, pGlu-Asn-Ser-Pro-Arg-Gly-NH2 acetate] (HELM PEPTIDE1{[Glp].N.S.P.R.G.[am]}$$$$V2.0), the “Effect (%): ratio of response latent period of each group to that of the control groups” value (shortened to “Effect (%): ratio”) is reported as 353%.
`N=C(N)NCCC[C@H](NC(=O)[C@@H]1CCCN1C(=O)[C@H](CO)NC(=O)[C@@H]1CCCN1)C(=O)O` [Example 27, H-Pro-Ser-Pro-Arg-OH acetate] (H-PSPR-OH) was tested, and the “Effect (%): ratio” value was 213%.

Same assay, conditions: dose 1 ng/kg, given 1 h before electro-shock (0.5 mA); cycloheximide 2.7 to 3.0 mg/kg s.c.; retention tested at 48 hours; control = cycloheximide alone
In the case of `N=C(N)NCCC[C@H](NC(=O)[C@@H]1CCN1C(=O)[C@H](CSSC[C@H](N)C(=O)O)NC(=O)[C@H](CC(N)=O)NC(=O)[C@@H]1CCC(=O)N1)C(=O)NCC(N)=O` [Example 6] ([pGlu]NC(Cys(free,S-linked))[Aze]RG-NH2), the “Effect (%): ratio” value is reported as 239%.
With `C[C@H](NC(=O)[C@@H](N)CC(N)=O)C(=O)N1CCC[C@H]1C(=O)N[C@@H](CCCNC(=N)N)C(=O)O` [Example 9, H-Asn-Ala-Pro-Arg-OH acetate] (H-NAPR-OH) the “Effect (%): ratio” value was 460%.
With `N=C(N)NCCC[C@H](NC(=O)[C@@H]1CCCCN1C(=O)[C@H](CO)NC(=O)[C@@H](N)CC(N)=O)C(=O)O` [Example 12, H-Asn Ser-Pip-Arg-OH acetate] (HELM PEPTIDE1{N.S.[O=C([C@@H]1CCCCN1[*:1])[*:2]].R}$$$$V2.0) the “Effect (%): ratio” value was 235%.
In the case of `N=C(N)NCCC[C@H](NC(=O)[C@@H]1CCCN1C(=O)[C@H](CSSC[C@H](N)C(=O)O)NC(=O)[C@@H]1CCCN1)C(=O)NCC(N)=O` [Example 17] (H-PC(Cys(free,S-linked))PRG-NH2), the “Effect (%): ratio” value is reported as 365%.
